Assay results as given in US7851474B2, “Dipiperazinyl ketones and related analogues” (Neurogen Corporation, priority 2005, dated 2010).
Like-named read-outs stand apart in the source and are kept apart here.

Target: T1, chimeric human H3 receptor (Homo sapiens, UniProt Q9Y5N1, E19D)
T1 construct: made in house; host or cells: Sf9 insect cells (baculovirus infection); P2 membrane preparation
Experiment: Chimeric human H3 receptor GTP binding assay (agonist-stimulated GTP-gamma35S binding, Example 7)
Assay type: biochemical
Text: This Example illustrates a representative assay for evaluating agonist-stimulated GTP-gamma^35S binding (“GTP binding”) activity. […] This agonist-stimulated GTP binding activity can also be used to detect partial agonism mediated by antagonist compounds. A compound analyzed in this assay is referred to herein as a “test compound.”
Four independent baculoviral stocks (one directing the expression of the chimeric human H3 receptor and three directing the expression of each of the three subunits of a heterotrimeric G-protein) are used to infect a culture of Sf9 cells as described above. P2 membranes are prepared as described above, and agonist-stimulated GTP binding on the P2 membranes is assessed using histamine (Sigma Chemical Co., St. Louis, Mo.) as agonist in order to ascertain that the receptor/G-protein-alpha-beta-gamma combination(s) yield a functional response as measured by GTP binding. P2 membranes are resuspended by Dounce homogenization (tight pestle) in GTP binding assay buffer (50 mM Tris pH 7.4, 120 mM NaCl, 5 mM MgCl2, 2 mM EGTA, 1 mg/ml BSA, 0.2 mg/ml bacitracin, 0.02 mg/ml aprotinin, 0.01 mg/ml saponin, 10 μM GDP) and added to assay tubes at a concentration of 35 μg protein/reaction tube. […] In competition experiments, non-radiolabeled test compounds are added to separate reactions at concentrations ranging from 10^−10 M to 10^−6 M along with 1 μM histamine to yield a final volume of 0.20 ml.
Neutral antagonists are antagonists that are substantially free of inherent agonist activity, and include those test compounds that reduce the histamine-stimulated GTP binding activity towards, but not below, baseline levels. In contrast, in the absence of added histamine, inverse agonists reduce the GTP binding activity of the receptor-containing membranes below baseline.
After a 60-min incubation at room temperature, reactions are terminated by vacuum filtration over WHATMAN GF/C filters (pre-soaked in wash buffer, 0.1% BSA) followed by washing with ice-cold wash buffer (50 mM Tris pH 7.4, 120 mM NaCl). The amount of receptor-bound (and thereby membrane-bound) GTP-gamma^35S is determined by measuring the filter-bound radioactivity, preferably by liquid scintillation spectrometry of the washed filters. […] Data is expressed as percent above basal (baseline). The results of GTP binding experiments are analyzed using SIGMAPLOT software (SPSS Inc., Chicago, Ill.).
IC50 values are calculated by non-linear regression analysis of dose-response curves using Kaleidograph (Synergy Software, Reading, Pa.).

[1] = Table II, assay of Example 7, "*" in Ki, read-out: Ki
[2] = assay of Example 7, symbol * in column headed Ki of Table II, read-out: Ki
[3] = Table II, "*" in Ki, assay of Example 7, read-out: Ki
[4] = Table II "Ki", symbol "*": Ki in the assay of Example 7, read-out: Ki
[5] = assay of Example 7, "*" in Ki of Table II, read-out: Ki

T1 sequence (Q9Y5N1 with tags, fused parts or gaps E19D): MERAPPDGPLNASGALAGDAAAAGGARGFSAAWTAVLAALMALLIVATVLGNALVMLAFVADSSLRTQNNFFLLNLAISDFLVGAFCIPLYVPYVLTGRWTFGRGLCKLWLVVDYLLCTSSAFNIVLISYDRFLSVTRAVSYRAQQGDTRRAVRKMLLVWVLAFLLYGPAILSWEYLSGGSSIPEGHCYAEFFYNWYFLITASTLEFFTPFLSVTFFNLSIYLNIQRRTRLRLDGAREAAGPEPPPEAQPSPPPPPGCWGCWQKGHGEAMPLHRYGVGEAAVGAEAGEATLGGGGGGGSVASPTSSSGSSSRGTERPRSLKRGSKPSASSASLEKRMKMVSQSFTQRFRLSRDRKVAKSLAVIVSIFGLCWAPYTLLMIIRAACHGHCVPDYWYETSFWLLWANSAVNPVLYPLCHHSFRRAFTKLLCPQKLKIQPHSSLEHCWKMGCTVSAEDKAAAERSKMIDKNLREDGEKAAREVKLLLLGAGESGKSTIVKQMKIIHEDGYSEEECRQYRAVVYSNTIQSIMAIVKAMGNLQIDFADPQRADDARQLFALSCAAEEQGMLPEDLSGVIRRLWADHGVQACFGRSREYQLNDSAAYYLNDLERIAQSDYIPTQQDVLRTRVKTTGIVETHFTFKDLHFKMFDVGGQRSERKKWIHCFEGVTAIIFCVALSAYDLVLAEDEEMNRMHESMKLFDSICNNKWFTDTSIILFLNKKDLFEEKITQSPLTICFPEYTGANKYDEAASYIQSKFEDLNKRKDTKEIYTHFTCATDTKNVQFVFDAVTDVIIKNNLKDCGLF

CCc1cccc(-c2ccc(N3CCN(CC(=O)N4CCN(C5CCC5)CC4)CC3)nn2)c1 [Compound 1019, 3-{4-[2-(4-cyclobutylpiperazin-1-yl)-2-oxoethyl]piperazin-1-yl}-6-(3-ethylphenyl)pyridazine]
Ki [1]: < 1000 nM

O=C(CN1CCN(c2ccc(C(=O)N3CCCCCC3)cn2)CC1)N1CCN(C2CCC2)CC1 [Compound 415, 1-[(6-{4-[2-(4-cyclobutylpiperazin-1-yl)-2-oxoethyl]piperazin-1-yl}pyridin-3-yl)carbonyl]azepane]
Ki [2]: < 1000 nM

O=C(CN1CCN(c2ccc(C(=O)N3CCCCC3)cn2)CC1)N1CCN(C2CCC2)CC1 [Compound 610, 1-cyclobutyl-4-({4-[5-(piperidin-1-ylcarbonyl)pyridin-1-yl]piperazin-1-yl}acetyl)piperazine]
Ki [3]: < 1000 nM

CCN1CCN(C(=O)CN2CCN(c3ccc(OC)cc3)C(C)C2)CC1 (stereo not drawn) [Compound 1110, 4-[2-(4-ethylpiperazin-1-yl)-2-oxoethyl]-1-(4-methoxyphenyl)-2-methylpiperazine]
Ki [1]: < 1000 nM

CCC(C)N1CCN(C(=O)CN2CCN(c3ccc(C)cc3C)CC2)CC1 (stereo not drawn) [Compound 863]
Ki [4]: < 1000 nM

Cc1cccc(N2CCN(CC(=O)N3CCN(C4CCC4)CC3)CC2)c1 [Compound 763, 1-cyclobutyl-4-{[4-(3-methylphenyl)piperazin-1-yl]acetyl}piperazine]
Ki [3]: < 1000 nM

Cc1ccc(N2CCN(CC(=O)N3CCN(C4CCCC4)CC3)CC2C)cc1 (stereo not drawn) [Compound 1109, 4-[2-(4-cyclopentylpiperazin-1-yl)-2-oxoethyl]-2-methyl-1-(4-methylphenyl)piperazine]
Ki [1]: < 1000 nM

C=CCNC(=O)c1cccc(N2CCN(CC(=O)N3CCN(C4CCC4)CC3)CC2)c1 [Compound 1260, N-allyl-3-{4-[2-(4-cyclobutylpiperazin-1-yl)-2-oxoethyl]piperazin-1-yl}benzamide]
Ki [5]: < 1000 nM

CC(C)CCNC(=O)c1ccc(N2CCN(CC(=O)N3CCN(C4CCC4)CC3)CC2)cc1 [Compound 1136, 4-{4-[2-(4-cyclobutylpiperazin-1-yl)-2-oxoethyl]piperazin-1-yl}-N-(3-methylbutyl)benzamide]
Ki [1]: < 1000 nM

Cc1ccc(-c2ccc(N3CCN(CC(=O)N4CCN(C5CCC5)CC4)CC3)nn2)c(F)c1 [Compound 1007, 3-{4-[2-(4-cyclobutylpiperazin-1-yl)-2-oxoethyl]piperazin-1-yl}-6-(2-fluoro-4-methylphenyl)pyridazine]
Ki [1]: < 1000 nM

O=C(CN1CCN(c2cccc(Br)c2)CC1)N1CCN(C2CCC2)CC1 [Compound 293, 1-(3-bromophenyl)-4-[2-(4-cyclobutylpiperazin-1-yl)-2-oxoethyl]piperazine]
Ki [2]: < 1000 nM

Cc1cc(C)cc(C(=O)NC2CCN(CC(=O)N3CCN(C4CCC4)CC3)C2)c1 (stereo not drawn) [Compound 1229, N-{1-[2-(4-cyclobutylpiperazin-1-yl)-2-oxoethyl]pyrrolidin-3-yl}-3,5-dimethylbenzamide]
Ki [5]: < 1000 nM

COc1ccc(-c2ccc(N3CCN(CC(=O)N4CCN(C5CCC5)CC4)CC3)cc2)cc1OC [Compound 732, 1-cyclobutyl-4-{[4-(3′,4′-dimethoxybiphenyl-4-yl)piperazin-1-yl]acetyl}piperazine]
Ki [3]: < 1000 nM

CC(=O)c1ccc(N2CCN(CC(=O)N3CCN(C4CCCC4)CC3)CC2)nc1 [Compound 373, 1-(6-{4-[2-(4-cyclopentylpiperazin-1-yl)-2-oxoethyl]piperazin-1-yl}pyridin-3-yl)ethanone]
Ki [2]: < 1000 nM

O=C(CN1CCN(c2cccc(C(=O)N3CCSCC3)c2)CC1)N1CCN(C2CCC2)CC1 [Compound 1091, 4-(3-{4-[2-(4-cyclobutylpiperazin-1-yl)-2-oxoethyl]piperazin-1-yl}benzoyl) thiomorpholine]
Ki [1]: < 1000 nM

N#Cc1cccc(-c2ccc(N3CCN(CC(=O)N4CCN(C5CCC5)CC4)CC3)cc2)c1 [Compound 1118, 4′-{1-[2-(4-cyclobutylpiperazin-1-yl)-2-oxoethyl]piperazin-1-yl}biphenyl-3-carbonitrile]
Ki [1]: < 1000 nM

CC(C)N1CCN(C(=O)CN2CCN(c3ccc4c(c3)OCO4)CC2)CC1 [Compound 258, 1-(1,3-benzodioxol-5-yl)-4-[2-(4-isopropylpiperazin-1-yl)-2-oxoethyl]piperazine]
Ki: < 1000 nM

O=C(CN1CCC2(CC1)C(=O)NCN2c1ccccc1)N1CCN(C2CCC2)CC1 [Compound 1190]
Ki [5]: < 1000 nM

CC(C)N1CCN(C(=O)CN2CCN(c3cccc(F)c3)CC2)CC1 [Compound 303, 1-(3-fluorophenyl)-4-[2-(4-isopropylpiperazin-1-yl)-2-oxoethyl]piperazine]
Ki: < 1000 nM

CCC(CC)CNC(=O)c1ccc(N2CCN(CC(=O)N3CCN(C4CCC4)CC3)CC2)nc1 [Compound 1188, 6-{4-[2-(4-cyclobutylpiperazin-1-yl)-2-oxoethyl]piperazin-1-yl}-N-(2-ethylbutyl)nicotinamide]
Ki [5]: < 1000 nM

CCN(CC)C(=O)c1ccc(N2CCN(CC(=O)N3CCN(C4CCC4)CC3)CC2)cc1 [Compound 1125, 4-{4-[2-(4-cyclobutylpiperazin-1-yl)-2-oxoethyl]piperazin-1-yl}-N,N-diethylbenzamide]
Ki [1]: < 1000 nM

COc1cc(-c2cnc(N3CCN(CC(=O)N4CCN(C5CCC5)CC4)CC3)cn2)cc(OC)c1OC [Compound 943, 2-{4-[2-(4-cyclobutylpiperazin-1-yl)-2-oxoethyl]piperazin-1-yl}-5-(3,4,5-trimethoxyphenyl)pyrazine]
Ki [1]: < 1000 nM

O=C(CN1CCN(c2ccccc2)CC1)N1CCN(C2CCCCC2)CC1 [Compound 805, 1-cyclohexyl-4-[(4-phenylpiperazin-1-yl)acetyl]piperazine]
Ki [4]: < 1000 nM

CC(=O)c1ccc(N2CCC(C(C)(C)C(=O)N3CCN(C4CCCC4)CC3)CC2)cc1 [Compound 322, 1-(4-{4-[2-(4-cyclopentylpiperazin-1-yl)-1,1-dimethyl-2-oxoethyl]piperidin-1-yl}phenyl)ethanone]
Ki [2]: < 1000 nM

CCC(CC)CNC(=O)c1ccc(N2CCN(CC(=O)N3CCN(C4CCC4)CC3)CC2)cc1 [Compound 1146, 4-{4-[2-(4-cyclobutylpiperazin-1-yl)-2-oxoethyl]piperazin-1-yl}-N-(2-ethylbutyl)benzamide]
Ki [5]: < 1000 nM

CCC(C)N1CCN(C(=O)CN2CCN(c3cccc(C)c3C)CC2)CC1 (stereo not drawn) [Compound 860, 1-sec-butyl-4-{[4-(2,3-dimethylphenyl)piperazin-1-yl]acetyl}piperazine]
Ki [4]: < 1000 nM

Cc1cc(N2CCN(CC(=O)N3CCN(C4CCCC4)CC3)CC2)ccc1Cl [Compound 351, 1-(4-chloro-3-methylphenyl)-4-[2-(4-cyclopentylpiperazin-1-yl)-2-oxoethyl]piperazine]
Ki [2]: < 1000 nM

CCC(C)N1CCN(C(=O)CN2CCC(N3CCCCCC3)CC2)CC1 (stereo not drawn) [Compound 481, 1-{1-[2-(4-sec-butylpiperazin-1-yl)-2-oxoethyl]piperidin-4-yl}azepane]
Ki ("*" in Ki of Table II, assay of Example 7, read-out: Ki): < 1000 nM

O=C(c1ccc(N2CCN(CC(=O)N3CCN(C4CCC4)CC3)CC2)cc1)C1CCC1 [Compound 1194, cyclobutyl(4-{4-[2-(4-cyclobutylpiperazin-1-yl)-2-oxoethyl]piperazin-1-yl}phenyl)methanone]
Ki [5]: < 1000 nM

O=C(CN1CCN(c2ccc(-c3ccc(Cl)cc3F)cc2)CC1)N1CCN(C2CCC2)CC1 [Compound 341, 1-(4′-chloro-2′-fluorobiphenyl-4-yl)-4-[2-(4-cyclobutylpiperazin-1-yl)-2-oxoethyl]piperazine]
Ki [2]: < 1000 nM

CCc1ccc(-c2ccc(N3CCN(CC(=O)N4CCN(C5CCC5)CC4)CC3)cc2)cc1 [Compound 770, 1-cyclobutyl-4-{[4-(4′-ethylbiphenyl-4-yl)piperazin-1-yl]acetyl}piperazine]
Ki [3]: < 1000 nM

CC(C)c1ccc(C(=O)NC2CCN(CC(=O)N3CCN(C4CCC4)CC3)CC2)cc1 [Compound 1219, N-{1-[2-(4-cyclobutylpiperazin-1-yl)-2-oxoethyl]piperidin-4-yl}-4-isopropylbenzamide]
Ki [5]: < 1000 nM

Cc1ccc(C(=O)NC2CCN(CC(=O)N3CCN(C4CCC4)CC3)CC2)cc1 [Compound 1217, N-{1-[2-(4-cyclobutylpiperazin-1-yl)-2-oxoethyl]piperidin-4-yl}-4-methylbenzamide]
Ki [5]: < 1000 nM
